# Measurements published in patent publication US20240343727A1, “PYRIDAZINONE OR PYRIDINONE COMPOUNDS, PREPARATION METHODS AND USES THEREOF” (InventisBio Co., Ltd., priority 2021, published 2024).
# Molecular target: T1, PARP7 (Homo sapiens, UniProt Q7Z3E1)
# T1 sequence (Q7Z3E1 1-657): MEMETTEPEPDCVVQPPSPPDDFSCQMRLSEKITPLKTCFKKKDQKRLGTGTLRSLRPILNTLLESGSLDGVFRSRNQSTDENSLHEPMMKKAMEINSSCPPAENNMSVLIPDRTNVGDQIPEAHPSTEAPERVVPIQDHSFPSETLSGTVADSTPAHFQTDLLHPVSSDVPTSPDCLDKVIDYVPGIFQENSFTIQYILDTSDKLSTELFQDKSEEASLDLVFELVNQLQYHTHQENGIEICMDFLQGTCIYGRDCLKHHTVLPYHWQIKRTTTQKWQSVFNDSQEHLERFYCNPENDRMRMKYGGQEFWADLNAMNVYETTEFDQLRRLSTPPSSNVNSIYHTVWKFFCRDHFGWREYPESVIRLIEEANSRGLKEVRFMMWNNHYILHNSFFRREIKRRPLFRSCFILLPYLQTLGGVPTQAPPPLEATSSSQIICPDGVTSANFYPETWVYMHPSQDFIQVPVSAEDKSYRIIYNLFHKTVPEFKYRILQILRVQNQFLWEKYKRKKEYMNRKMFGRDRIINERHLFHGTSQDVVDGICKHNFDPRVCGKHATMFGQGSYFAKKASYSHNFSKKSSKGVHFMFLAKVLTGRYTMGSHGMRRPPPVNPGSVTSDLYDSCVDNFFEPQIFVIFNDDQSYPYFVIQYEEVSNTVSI
# Assay: PARP7 TR-FRET assay (binding, displacement of biotinylated Probe A)
# Conditions: 6 nM PARP7, 2 nM Probe A, 25° C., 30 min
# How it was run: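 Compound displacement of biotinylated Probe A (2 nM) from PARP7 (6 nM) measured by TR-FRET in HEPES pH 8.0 buffer, 30 min at 25° C. Detection used ULight-anti 6xHis (4 nM) plus Eu-streptavidin (0.25 nM) for 30 min, reading the 665/615 nm ratio. % inhibition was taken against DMSO and no-enzyme wells, and IC50 from a Hill fit.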
row,SMILES,IC50 [µM]
1,C[C@@H]1CN(C(=O)c2cncc(Oc3n[nH]c(=O)c(C(F)(F)F)c3N3CC4(C3)CC(F)(F)C4)c2)CCN1c1cnc(C(F)(F)F)cn1 [Compound 155],< 0.1
2,"N#Cc1ccc(N2CCN(C(=O)CC3CN(c4cc(C(F)(F)F)c(=O)[nH]n4)c4cc(C#N)ccc4O3)CC2)nc1 (single isomer, unassigned) [Compound 230]",0.1 to 1
3,"N#Cc1cnc(N2CCN(C(=O)CC3CN(c4cc(C(F)(F)F)c(=O)[nH]n4)c4cc(Cl)ccc4O3)CC2)nc1 (single isomer, unassigned) [Compound 294]",0.1 to 1
4,O=C(c1cccc(Oc2n[nH]c(=O)c(C(F)(F)F)c2N2CC(C(F)F)C2)c1)N1CCN(c2ncc(C(F)(F)F)cn2)CC1 [Compound 72],< 0.1
5,"C#Cc1cnc(N2CCN(C(=O)CC3CN(c4cc(C(F)(F)F)c(=O)[nH]n4)c4cc(C#N)ccc4O3)CC2)nc1 (single isomer, unassigned) [Compound 235]",< 0.1
6,C[C@@H]1CN(c2n[nH]c(=O)c3cccc(F)c23)C[C@H](CC(=O)N2CCN(c3ncc(C(F)(F)F)cn3)CC2)O1 (stereo in doubt) [Compound 119],> 1
7,O=C(c1cccc(Oc2n[nH]c(=O)c(C(F)(F)F)c2N2CC3(COC3)C2)c1)N1CCN(c2ncc(C(F)(F)F)cn2)CC1 [Compound 165],< 0.1
8,O=C(c1cncc(Oc2n[nH]c(=O)c(C(F)(F)F)c2N2CC(C3CC3)C2)c1)N1CCN(c2ncc(C(F)(F)F)cn2)CC1 [Compound 278],< 0.1
9,Cc1c(N(C)c2cccc(C(=O)N3CCN(c4ncc(C(F)(F)F)cn4)CC3)c2)n[nH]c(=O)c1C(F)(F)F [Compound 77],< 0.1
10,"O=C(CC1CN(c2cc(C(F)(F)F)c(=O)[nH]n2)c2cc(Cl)ccc2O1)N1CCN(c2ncc(C(F)(F)F)cn2)CC1 (single isomer, unassigned) [Compound 133]",< 0.1
11,O=C(c1cccc(Oc2n[nH]c(=O)c(C(F)(F)F)c2N2CC3(CCC3)C2)c1)N1CCN(c2ccc(Cl)cn2)CC1 [Compound 182],< 0.1
12,"O=C(CC1CN(c2cc(C(F)(F)F)c(=O)[nH]n2)c2ccccc2O1)N1CCn2c(nnc2C(F)(F)F)C1 (single isomer, unassigned) [Compound 290]",> 1
13,"O=C(CC1CN(c2cc(C(F)(F)F)c(=O)[nH]n2)c2cc(F)ccc2O1)N1CCN(c2ncc(OC(F)(F)F)cn2)CC1 (single isomer, unassigned) [Compound 312]",0.1 to 1
14,"N#Cc1cnc(N2CCN(C(=O)CC3CN(c4cc(C(F)(F)F)c(=O)[nH]n4)c4cc(F)ccc4O3)CC2)nc1 (single isomer, unassigned) [Compound 265]",0.1 to 1
15,O=C(c1cc(Oc2n[nH]c(=O)c(C(F)(F)F)c2N2CC3(C2)CC(F)(F)C3)ccn1)N1CCN(c2ncc(Cl)cn2)CC1 [Compound 307],< 0.1
16,"N#Cc1ccc(N2CCN(C(=O)CC3CN(c4cc(C(F)(F)F)c(=O)[nH]n4)c4cc(C(F)F)ccc4O3)CC2)nc1 (single isomer, unassigned) [Compound 327]",< 0.1
17,"O=C(CC1CN(c2cc(C(F)(F)F)c(=O)[nH]n2)c2ccccc2O1)N1CCN(c2ncc(Cl)cn2)CC1 (single isomer, unassigned) [Compound 296]",< 0.1
18,Cc1c(C(F)(F)F)c(Oc2cccc(C(=O)N3CCN(c4ncc(C(F)(F)F)cn4)CC3)c2)n[nH]c1=O [Compound 17],> 1
19,COC1CN(c2c(Oc3ccnc(C(=O)N4CCN(c5ncc(C(F)(F)F)cn5)CC4)c3)n[nH]c(=O)c2C(F)(F)F)C1 [Compound 315],< 0.1
20,"O=C(CCO[C@@H]1CCNc2c1n[nH]c(=O)c2C(F)(F)F)N1CCN(c2ncc(C(F)(F)F)cn2)CC1 (single isomer, unassigned) [Compound 6]",< 0.1
21,"C#Cc1cc(N2CCOC(CC(=O)N3CCN(c4ncc(C(F)(F)F)cn4)CC3)C2)n[nH]c1=O (single isomer, unassigned) [Compound 45]",0.1 to 1
22,O=C(c1cccc(Oc2n[nH]c(=O)c(C(F)(F)F)c2NC2CC3(COC3)C2)c1)N1CCN(c2ncc(C(F)(F)F)cn2)CC1 [Compound 202],< 0.1
23,"O=C(CC1CN(c2cc(C(F)(F)F)c(=O)[nH]n2)c2cc(N3CCOCC3=O)ccc2O1)N1CCN(c2ncc(C(F)(F)F)cn2)CC1 (single isomer, unassigned) [Compound 282]",< 0.1
24,"CNCc1ccc2c(c1)N(c1cc(C(F)(F)F)c(=O)[nH]n1)CC(CC(=O)N1CCN(c3ncc(C(F)(F)F)cn3)CC1)O2 (single isomer, unassigned) [Compound 297]",0.1 to 1
25,Cc1c(Oc2cc(C(=O)N3CCN(c4ncc(C(F)(F)F)cn4)CC3)ccc2Cl)n[nH]c(=O)c1C(F)(F)F [Compound 24],0.1 to 1

row,SMILES,IC50 [µM]
1,O=C(c1cccc(Oc2n[nH]c(=O)c(C(F)(F)F)c2N2CC3(CCC3)C2)c1)N1CCn2c(nnc2C(F)(F)F)C1 [Compound 178],0.1 to 1
2,C[C@@H]1CN(C(=O)c2cc(Oc3n[nH]c(=O)c(C(F)(F)F)c3N3CC4(C3)CC(F)(F)C4)ccn2)CCN1c1ncc(C(F)(F)F)cn1 [Compound 318],< 0.1
3,C[C@H]1CN(c2n[nH]c(=O)c3cccc(F)c23)C[C@H](CC(=O)N2CCN(c3ncc(C(F)(F)F)cn3)CC2)O1 (stereo in doubt) [Compound 88],0.1 to 1
4,O=C([C@@H]1COCCN1c1cc(C(F)(F)F)c(=O)[nH]n1)N1CCN(c2ncc(C(F)(F)F)cn2)CC1 [Compound 36],< 0.1
5,"CS(=O)(=O)c1ccc2c(c1)N(c1cc(C(F)(F)F)c(=O)[nH]n1)CC(CC(=O)N1CCN(c3ncc(C(F)(F)F)cn3)CC1)O2 (single isomer, unassigned) [Compound 206]",< 0.1
6,"O=C(CC1CN(c2cc(C(F)(F)F)c(=O)[nH]n2)c2ccccc2O1)N1CCN(c2ccc(Cl)cn2)CC1 (single isomer, unassigned) [Compound 261]",< 0.1
7,"CNCc1ccc2c(c1)N(c1cc(C(F)(F)F)c(=O)[nH]n1)CC(CC(=O)N1CCN(c3ncc(C(F)(F)F)cn3)CC1)O2 (single isomer, unassigned) [Compound 298]",0.1 to 1
8,C[C@@H]1CN(C(=O)c2cc(Oc3n[nH]c(=O)c(C(F)(F)F)c3N3CC4(C3)CC(F)(F)C4)ccn2)CCN1c1ncc(Cl)cn1 [Compound 319],< 0.1
9,O=C(c1cccc(Oc2n[nH]c(=O)c(C(F)(F)F)c2N2CC3CC3C2)c1)N1CCN(c2ncc(C(F)(F)F)cn2)CC1 (stereo not shown) [Compound 68],< 0.1
10,O=C(OC[C@@H]1CCCN1c1cc(C(F)(F)F)c(=O)[nH]n1)N1CCN(c2ncc(C(F)(F)F)cn2)CC1 [Compound 87],< 0.1
11,"O=C(CC1CN(c2cc(C(F)(F)F)c(=O)[nH]n2)c2ccccc2O1)N1CCN(c2cnc(C(F)(F)F)cn2)CC1 (single isomer, unassigned) [Compound 263]",0.1 to 1
12,"O=C(CC1CN(c2n[nH]c(=O)c3cccnc23)CCO1)N1CCN(c2ncc(C(F)(F)F)cn2)CC1 (single isomer, unassigned) [Compound 104]",< 0.1
13,CN(C)C1CN(c2c(Oc3cccc(C(=O)N4CCN(c5ncc(C(F)(F)F)cn5)CC4)c3)n[nH]c(=O)c2C(F)(F)F)C1 [Compound 82],< 0.1
14,"O=C(CC1CN(c2cc(C(F)(F)F)c(=O)[nH]n2)c2ccccc2O1)N1CCN(c2cnc(C(F)(F)F)cn2)CC1 (single isomer, unassigned) [Compound 262]",< 0.1
15,"N#Cc1ccc2c(=O)[nH]nc(N3CCOC(CC(=O)N4CCN(c5ncc(C(F)(F)F)cn5)CC4)C3)c2c1 (single isomer, unassigned) [Compound 244]",0.1 to 1
16,"O=C(CC1CN(c2cc(C(F)(F)F)c(=O)[nH]n2)c2cc(F)ccc2O1)N1CCN(c2cnc(C(F)(F)F)cn2)CC1 (single isomer, unassigned) [Compound 292]",0.1 to 1
17,Cc1c(Sc2cccc(C(=O)N3CCN(c4ncc(C(F)(F)F)cn4)CC3)c2)n[nH]c(=O)c1C(F)(F)F [Compound 62],< 0.1
18,CN1CC2(C1)CN(c1c(Oc3cccc(C(=O)N4CCN(c5ncc(C(F)(F)F)cn5)CC4)c3)n[nH]c(=O)c1C(F)(F)F)C2 [Compound 69],< 0.1
19,"O=C(CC1CN(c2cc(C(F)(F)F)c(=O)[nH]n2)c2ccccc2O1)N1CCn2c(nnc2C(F)(F)F)C1 (single isomer, unassigned) [Compound 289]",> 1
20,C[C@H]1CN(c2ncc(C(F)(F)F)cn2)CCN1C(=O)c1cccc(Oc2n[nH]c(=O)c(C(F)(F)F)c2N2CC3(CCO3)C2)c1 [Compound 255],< 0.1
21,"C#Cc1ccc2c(N3CCOC(CC(=O)N4CCN(c5ncc(C(F)(F)F)cn5)CC4)C3)n[nH]c(=O)c2c1 (single isomer, unassigned) [Compound 197]",< 0.1
22,Cc1c(Nc2cccc(C(=O)N3CCN(c4ncc(C(F)(F)F)cn4)CC3)c2)n[nH]c(=O)c1C(F)(F)F [Compound 76],< 0.1
23,CCOC1CN(c2c(Oc3ccnc(C(=O)N4CCN(c5ncc(C(F)(F)F)cn5)CC4)c3)n[nH]c(=O)c2C(F)(F)F)C1 [Compound 320],< 0.1
24,O=C(c1cccc(Oc2n[nH]c(=O)c(C(F)(F)F)c2N2CC(C3CC3)C2)c1)N1CCN(c2ncc(C(F)(F)F)cn2)CC1 [Compound 180],< 0.1
